# Test results: patent publication US20040034225A1, “Aryl-substituted n, n-heterocyclic compounds, method for their preparationand their use in therapeutics and diagnostics” (priority 2000, published 2004)
# Structures can show the parent of a compound that is named as a salt.
# Tests used:
# [1] = tested on: AAPH-induced oxidation of linoleate; assay: AAPH-induced peroxidation of linoleate (conjugated dienes at 234 nm); assay type: biochemical; conditions: for A234 (amount of conjugated dienes formed by the peroxidative process): absorption at 234 nm after 150 min at 37° C., aminopyrazines at 10 μM, AAPH alone 0.37; for antioxidative activity (inhibition of lipid peroxidation), in words: comment on Table 2, 10 μM; for antioxidative activity (inhibition of AAPH-induced peroxidation of linoleic acid), in words: FIG. 3
# Protocol: In a preferred embodiment the synthetic derivatives of 2-amino-1,4-pyrazine of family I, characterized by two aryl substituents in positions C-3 and C-5, were endowed with unexpectedly high antioxidative properties (FIG. 1). […] AAPH 4 mM was added to a micellar solution of linoleate (0.16 mM). The rate of conjugated dienes formation was measured at 234 nm at 37° C. All aminopyrazines were tested at 5 μM.
# The ability of the synthesized compounds to inhibit lipid peroxidation has been tested on AAPH-induced oxidation of linoleate. Briefly, a micellar solution of linoleate (0.16 mM) is incubated at 37° C. with 4 mM free radical generator AAPH (2,2′-azobis-2-methyl-propionamidine hydrochloride) in a microplate-based spectrophotometer. The production of conjugated dienes by the peroxidation of linoleate is monitored continuously at 234 nm. Antioxidants can both delay the onset of the oxidation process and reduce the rate of the oxidation.
# The amount of conjugated dienes formed by the peroxidative process evaluated by the absorption at 234 nm after 150 min at 37° C. All aminopyrazines were tested at 10 μM.
# [2] = tested on: Human keratinocytes cells (HaCaT); assay: Protective effect against UVB in HaCaT cells (LDH release); assay type: cell-based; conditions: for Percentage Mortality (LDH assay), Unirradiated cells: 24 hours, no UVB; for mortality at 50 µM: Homo sapiens, light or radiation study, 30 min pre-incubation, UVB 200 mJ/cm^2, 24 hours, control 14.1, read-out: Percentage Mortality (LDH assay), UVB-irradiated cells
# Protocol: Human keratinocytes cells (HaCaT) were cultured in 96-well microplates. Tested compounds were solubilized in phosphate buffered saline (PBS) and applied to cells 30 minutes prior to the irradiation with UVB in a BIOSUN irradiation system (Vilbert-Lourmat). PBS was then replaced by the culture medium containing the tested compounds, and incubated for a further 24 hours before measuring the percentage of lactate dehydrogenase (LDH) released into the cell culture supernatant.
# Keratinocytes were pre-incubated with aminopyrazines (50 μM) for 30 min and then irradiated with UVB at 200 mJ/cm^2 in the absence of the antioxidant. The cells were then incubated for a further 24 hours in the culture medium containing the tested compounds before measuring the percentage of lactate dehydrogenase (LDH) released into the cell culture supernatant.
# Keratinocytes were pre-incubated with increasing concentrations of CD43 for 30 min and then irradiated with UVB at 200 mJ/cm^2. The cells were incubated for a further 24 hours before measuring the percentage of lactate dehydrogenase (LDH) released into the cell culture supernatant.
# [3] = FIG. 2, increasing concentrations of CD43
structure (smiles),measurement,setting,value
"Nc1ncc(-c2ccc(O)cc2)nc1-c1ccccc1 [CD51, 2-amino-3-phenyl-5-(p-hydroxyphenyl)-1,4-pyrazine]","rate of the oxidation, in words","[1]; FIG. 6, 5 μM",only reduces the rate of the oxidation
same,A234 (amount of conjugated dienes formed by the peroxidative process),[1],0.12
same,"antioxidative activity (inhibition of lipid peroxidation), in words",[1],more activity
same,"Percentage Mortality (LDH assay), Unirradiated cells",[2]; 50 μM,0%
same,mortality at 50 µM,[2]; 50 μM,7.3%
"Cc1nc2c(-c3ccc(O)cc3)[nH]c(-c3ccc(O)cc3)cn-2c1=O [CD43, 2-Methyl-6,8-bis(p-hydroxyphenyl)-3,7-dihydroimidazolo[1,2-a]pyrazin-3-one]","onset of peroxidation, in words",[1]; [3],delay of the onset of peroxidation
same,"rate of oxidation after onset, in words",[1]; [3],lower rate of oxidation after onset
same,"protection against UVB-induced mortality, in words","[2]; FIG. 4, increasing concentrations of CD43, UVB 200 mJ/cm^2",very efficiently protect cells against UVB-induced mortality
same,"toxicity for cells, in words",[2]; controls,no toxicity for cells
"Cc1nc2c(-c3ccc(O)cc3)[nH]c(-c3ccccc3)cn-2c1=O (as salt: hydrochloride) (hydrate or solvate) [CD52, 2-Methyl-6-phenyl-8-(p-hydroxyphenyl)-3,7-dihydroimidazolo[1,2-a]pyrazin-3-one]",melting point,,99.5 °C (dec.)
"COc1ccc(-c2cnc(N)c(-c3ccc(OC)cc3)n2)cc1 [CD29, 2-Amino-3,5-bis(p-methoxyphenyl)-1,4-pyrazine, reference compound]",A234 (amount of conjugated dienes formed by the peroxidative process),[1],0.37
same,"antioxidative activity (inhibition of lipid peroxidation), in words",[1],reduced activities
"Nc1ncc(-c2ccccc2)nc1-c1ccc(O)cc1 [CD46, 2-amino-3-(p-hydroxyphenyl)-5-phenyl-1,4-pyrazine]",A234 (amount of conjugated dienes formed by the peroxidative process),[1],0.19
same,"Percentage Mortality (LDH assay), Unirradiated cells",[2]; 50 μM,0%
same,"protection against UVB-induced cytotoxicity, in words","[2]; 50 μM, UVB 200 mJ/cm^2",very efficiently reduced the cytotoxicity of UVB
same,mortality at 50 µM,[2]; 50 μM,0%
Nc1nc(N)c(-c2ccccc2)nc1-c1ccccc1 [JFC 33],"antioxidative activity (inhibition of AAPH-induced peroxidation of linoleic acid), in words",[1]; 5 μM,active
"Nc1nc(N)c(-c2ccc(O)cc2)nc1-c1ccc(O)cc1 [JFC28, 2,6-diamino-3,5-bis(p-hydroxyphenyl)-1,4-pyrazine]","antioxidative activity (inhibition of AAPH-induced peroxidation of linoleic acid), in words",[1]; 5 μM,does not improve the activity
"CCOC(=O)C(C)Nc1nc(NC(C)C(=O)OCC)c(-c2ccc(O)cc2)nc1-c1ccc(O)cc1 (centres unmarked) [JFC38, 2,6-Bis(1′-ethoxycarbonyl-ethylamino)-3,5-bis(p-hydroxyphenyl)-1,4-pyrazine]","antioxidative activity (inhibition of AAPH-induced peroxidation of linoleic acid), in words",[1]; 5 μM,very active
CCOC(=O)C(C)Nc1nc(NC(C)C(=O)OCC)c(-c2ccccc2)nc1-c1ccccc1 (centres unmarked) [JFC 39],"antioxidative activity (inhibition of AAPH-induced peroxidation of linoleic acid), in words",[1]; 5 μM,active
"Cc1nc2c(-c3ccccc3)[nH]c(-c3ccc(O)cc3)cn-2c1=O [CD53, 2-Methyl-6-(p-hydroxyphenyl)-8-phenyl-3,7-dihydroimidazolo[1,2-a]pyrazin-3-one]","onset of the oxidation process, in words","[1]; FIG. 6, 5 μM",firstly delays the onset of the oxidation process
"Nc1ncc(-c2ccc(O)cc2)nc1-c1ccc(O)cc1 [CD31, 2-amino-3,5-bis(p-hydroxyphenyl)-1,4-pyrazine]",A234 (amount of conjugated dienes formed by the peroxidative process),[1],0.08
same,"antioxidative activity (inhibition of lipid peroxidation), in words",[1],very active
same,"Percentage Mortality (LDH assay), Unirradiated cells",[2]; 50 μM,0%
same,mortality at 50 µM,[2]; 50 μM,0%
"CCOC(=O)C(C)Nc1nc(NC(C)C(=O)OCC)c(-c2ccc(O)cc2)nc1-c1ccc(O)cc1 (centres unmarked) (as salt: hydrochloride) [JFC38, 2,6-Bis(1′-ethoxycarbonyl-ethylamino)-3,5-bis(p-hydroxyphenyl)-1,4-pyrazine]",melting point,,175 °C (dec.)
